The text below walks through data of patent US20080096861A1, “Chemical Compounds” (SMITHKLINE BEECHAM CORPORATION, priority 2004, published 2008).

Where two headings read alike, the source gives them in different places.

Common to all, as to type: cell-based
One series has as its target T1, CXCR4 receptor (Homo sapiens, UniProt P61073).
T1 construct: expressed in transfected cells; host or cells: HEK-293 cells (stably expressing human macrophage scavenger receptor) transduced with human CXCR4 BacMam and Gqi5 BacMam
Briefly: Functional FLIPR assay (block of SDF-1 alpha induced [Ca2+]i change). The conditions noted are these: HEK-293 cells, human CXCR4 BacMam and Gqi5 BacMam, read-out: Functional assay (pIC50) (converted). As to the method: Human embryonic kidney (HEK-293) cells were maintained and harvested as described above. Cells were plated in 96-well, black clear bottom, poly-lysine coated plates at a concentration of 40,000 cells per well in a final volume of 100 ul containing human CXCR4BacMam (MOI=25) and Gqi5 BacMam (MOI=12.5). The cells were incubated at 37° C., 5% CO2, 95% humidity for 24 h to allow for protein expression.
After the required incubation time the cells were washed once with 50 ul of fresh serum-free DMEM/F12 media containing probenicid. 50 ul of dye solution was then added to the cells (Calcium Plus Assay Kit Dye; Molecular Devices) was dissolved in 200 ml of the above probenicid/BSA containing media and incubated for 1 h. Cell plates were transferred to a Fluorometric Imaging Plate Reader (FLIPR). Upon addition the effect of the compounds on the change in [Ca^2+]i was examined to determine if the compounds were agonists or antagonists (ability to block SDF-1 alpha activity) at the CXCR4 receptor. IC50 values are determined and pKb values are calculated using the Leff and Dougall equation: KB═IC50/((2+([agonist]/EC50̂b)̂1/b−1) Where IC50 is that defined by the antagonist concentration-response curve [agonist)] is the EC80 concentration of agonist used EC50 is that defined by the agonist concentration-response curve b is the slope of the agonist concentration-response curve.

The test system of series [1] is HIV-1 gp160 (HXB2 strain) mediated cell/cell fusion. Briefly: Cell/cell fusion assay (HOS hCXCR4/hCCR5/hCD4/pHIV-LTR-luciferase cells with HEK-293 cells expressing HIV-1 tat, rev, gp160), luciferase readout. The conditions noted are these: Homo sapiens, HEK293, 24 h, read-out: Fusion assay (pIC50) (converted). The source says:
The complete coding sequences of HIV-1 tat (GenBank Accession No. X07861) and rev (GenBank Accession No. M34378) were cloned into pcDNA3.1 expression vectors containing G418 and hygromycin resistance genes, respectively. The complete coding sequence of the HIV-1 (HXB2 strain) gp160 envelope gene (nucleotide bases 6225-8795 of GenBank Accession No. K03455) was cloned into plasmid pCRII-TOPO. The three HIV genes were additionally inserted into the baculovirus shuttle vector, pFastBacMam1, under the transcriptional control of the CMV promoter. A construction of the pHIV-1 LTR containing mutated NFkB sequences linked to the luciferase reporter gene was prepared by digesting pcDNA3.1, containing the G418 resistance gene, with Nru I and Bam HI to remove the CMV promoter. LTR-luc was then cloned into the Nru I/Bam HI sites of the plasmid vector. Plasmid preparations were performed after the plasmids were amplified in Escherichia coli strain DH5-alpha. The fidelity of the inserted sequences was confirmed by double-strand nucleotide sequencing using an ABI Prism Model 377 automated sequencer.
Recombinant BacMam baculoviruses were constructed from pFastBacMam shuttle plasmids by using the bacterial cell-based Bac-to-Bac system. Viruses were propagated in Sf9 (Spodoptera frugiperda) cells cultured in Hink's TNM-FH Insect media supplemented with 10% (v/v) fetal bovine serum and 0.1% (v/v) pluronic F-68 according to established protocols.
Human osteosarcoma (HOS) cells that naturally express human CXCR4 were transfected with human CCR5, human CD4 and the pHIV-LTR-luciferase plasmid using FuGENE 6 transfection reagent. Single cells were isolated and grown under selection condition in order to generate a stable HOS (hCXCR4/hCCR5/hCD4/pHIV-LTR-luciferase) clonal cell line. The cells were maintained in Dulbeccos modified Eagles media supplemented with 10% fetal calf serum (FCS), G418 (400 ug/ml), puromycin (1 ug/ml), mycophenolic acid (40 ug/ml), xanthine (250 ug/ml) and hypoxanthine (13.5 ug/ml) to maintain a selection pressure for cells expressing the LTR-luciferase, hCCR5 and hCD4, respectively. Human embryonic kidney (HEK-293) cells stably transfected to express the human macrophage scavenging receptor (Class A, type 1; GenBank Accession No. D90187), were maintained in DMEM/F-12 media (1:1) supplemented with 10% FCS and 1.5 ug/ml puromycin. The expression of this receptor by the HEK-293 cells enhances their ability to stick to tissue culture treated plasticware.
HEK-293 cells were harvested using enzyme-free cell dissociation buffer. The cells were resuspended in DMEM/F-12 media supplemented with 10% FCS and 1.5 ug/ml and counted. Tranductions were performed by direct addition of BacMam baculovirus containing insect cell media to cells. The cells were simultaneously transduced with BacMam baculovirus expressing HIV-1 tat, HIV-1 rev and HIV-1 gp160 (from the HXB2 HIV strain). Routinely an MOI of 10 of each virus was added to the media containing the cells. 2 mM butyric acid was also added to the cells at this stage to increase protein expression in transduced cells. The cells were subsequently mixed and seeded into a flask at 30 million cells per T225. The cells were incubated at 37° C., 5% CO2, 95% humidity for 24 h to allow for protein expression.
HEK and HOS cells were harvested in DMEM/F-12 media containing 2% FCS and DMEM media containing 2% FCS, respectively, with no selection agents added. Compounds were plated as 1 ul spots in 100% DMSO on a 96-well CulturPlate plates. HOS cells (50 ul) were added first to the wells, followed immediately by the HEK cells (50 ul). The final concentration of each cell type was 20,000 cells per well. Following these additions, the cells were returned to a tissue culture incubator (37° C.; 5% CO2/95% air) for an additional 24 h.
Following the 24 h incubation, total cellular luciferase activity was measured using the LucLite Plus assay kit (Packard, Meridien, Conn.). […]

The nature of series [2]: Compound cytotoxicity in HOS cells in the absence of virus (CellTiter-Glo). The conditions noted are these: human, no virus, read-out: Cytotox (pIC50) (converted). As to the method: Compounds were profiled against two HIV-1 viruses, the M-tropic (CCR5 utilizing) Ba-L strain and the T-tropic (CXCR4 utilizing) IIIB strain. Both viruses were propagated in human peripheral blood lymphocytes. Compounds were tested for there ability to block infection of the HOS cell line (expressing hCXCR4/hCCR5/hCD4/pHIV-LTR-luciferase) by either HIV-1 Ba-L or HIV-1 IIIB. Compound cytotoxicity was also examined in the absence of virus addition.
HOS cells (expressing hCXCR4/hCCR5/hCD4/pHIV-LTR-luciferase) were harvested and diluted in Dulbeccos modified Eagles media supplemented with 2% FCS and non-essential amino acid to a concentration of 60,000 cells/ml. The cells were plated into 96-well plates (100 ul per well) and the plates were placed in a tissue culture incubator (37° C.; 5% CO2/95% air) for a period of 24 h.
Subsequently, 50 ul of the desired drug solution (4 times the final concentration) was added to each well and the plates were returned to the tissue culture incubator (37° C.; 5% CO2/95% air) for 1 h. Following this incubation 50 ul of diluted virus was added to each well (approximately 2 million RLU per well of virus). The plates were returned to the tissue culture incubator (37° C.; 5% CO2/95% air) and were incubated for a further 96 h.
Following this incubation the endpoint for the virally infected cultures was quantified following addition of Steady-Glo Luciferase assay system reagent (Promega, Madison, Wis.). Cell viability or non-infected cultures was measured using a CellTiter-Glo luminescent cell viability assay system (Promega, Madison, Wis.). All luminescent readouts are performed on a Topcount luminescence detector (Packard, Meridien, Conn.).
For orientation: ATP-based viability assays read luminescence as a measure of living cells.

The next series relates to HIV-1 IIIB. Briefly: HOS HIV-1 infectivity assay. Put shortly:
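HOS cells expressing hCXCR4/hCCR5/hCD4 with an HIV-LTR-luciferase reporter were seeded in DMEM with 2% FCS and cultured 24 h at 37 °C. Compound was added 1 h before virus (~2 million RLU/well), then incubated 96 h. Infection was read by Steady-Glo luciferase; viability of uninfected cultures by CellTiter-Glo.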

The mark [3] stands for this setting: Human immunodeficiency virus 1, IIIB, as determined by the infectivity assay, strain not stated in Table 2, read-out: Activity Level.
Setting [4] is: Human immunodeficiency virus 1, T-tropic (CXCR4 utilizing) IIIB strain, HOS cells, 96 h, read-out: HOS (3B).

T1 sequence (P61073 whole entry): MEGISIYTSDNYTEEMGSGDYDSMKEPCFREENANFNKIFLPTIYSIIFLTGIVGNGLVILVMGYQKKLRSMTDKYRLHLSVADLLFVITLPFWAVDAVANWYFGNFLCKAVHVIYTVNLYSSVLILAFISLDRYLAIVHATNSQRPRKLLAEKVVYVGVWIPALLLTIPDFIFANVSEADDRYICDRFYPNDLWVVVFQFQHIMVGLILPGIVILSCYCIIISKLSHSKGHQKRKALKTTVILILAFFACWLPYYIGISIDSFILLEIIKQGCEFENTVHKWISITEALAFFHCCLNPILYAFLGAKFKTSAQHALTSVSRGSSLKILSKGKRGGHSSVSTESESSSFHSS

Turning to `CN(Cc1nc2ccccc2n1CCCNCc1ccccn1)C1CCCc2cccnc21` (stereo not drawn) [Example 16, N-Methyl-N-[(1-{3-[(2-pyridinylmethyl)amino]propyl}-1H-benzimidazol-2-yl)methyl]-5,6,7,8-tetrahydro-8-quinolinamine], the IC50 was 58.9 nM on CXCR4 receptor, 148 nM in series [1], 0.1 to 0.5 µM with HIV-1 IIIB (setting [3]) and 0.121 µM in the series with HIV-1 IIIB (setting [4]). Besides, the IC50 at 96 h in series [2] was > 100000 nM.
For `CN1CCC(n2c(CN(C)C3CCCc4cccnc43)nc3ccccc32)CC1` (stereo not drawn) [Example 11i, N-Methyl-N-{[1-(1-methyl-4-piperidinyl)-1H-benzimidazol-2-yl]methyl}-5,6,7,8-tetrahydro-8-quinolinamine], the IC50 on CXCR4 receptor is 37.2 nM; in series [1] it was 79.4 nM; in the series on HIV-1 IIIB (Human immunodeficiency virus 1, IIIB, HOS, 96 h, read-out: HOS (3B) (uM)), 0.082 µM; with HIV-1 IIIB (Human immunodeficiency virus 1, IIIB, read-out: Activity Level) it was < 0.1 µM. In series [2], the IC50 at 96 h is > 100000 nM.
With `CN1CC(Cn2c(CN(C)C3CCCc4cccnc43)nc3ccccc32)C1` (stereo not drawn) [Example 10e, N-Methyl-N-({1-[(1-methyl-3-azetidinyl)methyl]-1H-benzimidazol-2-yl}methyl)-5,6,7,8-tetrahydro-8-quinolinamine], the IC50 is 117 nM at CXCR4 receptor, 91.2 nM in series [1], < 0.1 µM in the series with HIV-1 IIIB (setting [3]) and 0.066 µM in the series on HIV-1 IIIB (setting [4]). The IC50 at 96 h in series [2] is > 100000 nM.
Consider `CN(C)CCCCCn1c(CN(C)C2CCCc3cccnc32)nc2ccccc21` (stereo not drawn) [Example 17, N-({1-[5-(Dimethylamino)pentyl]-1H-benzimidazol-2-yl}methyl)-N-methyl-5,6,7,8-tetrahydro-8-quinolinamine], for which the IC50 was 204 nM on CXCR4 receptor, 324 nM in series [1], 0.1 to 0.5 µM with HIV-1 IIIB (setting [3]) and 0.251 µM in the series with HIV-1 IIIB (setting [4]). Also, the IC50 at 96 h in series [2] is > 100000 nM.
On to `CN(Cc1nc2ccccc2n1CCN)C1CCCc2cccnc21` (stereo not drawn) [Example 18, N-{[1-(2-Aminoethyl)-1H-benzimidazol-2-yl]methyl}-N-methyl-5,6,7,8-tetrahydro-8-quinolinamine], for which the values for the IC50 (on CXCR4 receptor; in series [1]) were 166 nM and 316 nM, respectively. Also, in series [2], the IC50 at 96 h was > 100000 nM.
For the molecule `CN(Cc1nc2ccccc2n1CC1CCNCC1)C1CCCc2cccnc21` (stereo not drawn) [Example 6, N-Methyl-N-{[1-(4-piperidinylmethyl)-1H-benzimidazol-2-yl]methyl}-5,6,7,8-tetrahydro-8-quinolinamine], the IC50 at CXCR4 receptor was 282 nM; in series [1], 240 nM; with HIV-1 IIIB (setting [3]) it was < 0.1 µM; in the series on HIV-1 IIIB (setting [4]), 0.09 µM. In addition, the IC50 at 96 h in series [2] was > 100000 nM.
For `CN1CCCCC1CCn1c(CN(C)C2CCCc3cccnc32)nc2ccccc21` (stereo not drawn) [Example 23e, N-Methyl-N-({1-[2-(1-methyl-2-piperidinyl)ethyl]-1H-benzimidazol-2-yl}methyl)-5,6,7,8-tetrahydro-8-quinolinamine], in that order: 17.4 nM, 38 nM, < 0.1 µM, 0.033 µM and > 100000 nM.
Take `CCN(Cc1nc2ccccc2n1CCCN)C1CCCc2cccnc21` (stereo not drawn) [Example 20, N-{[1-(3-Aminopropyl)-1H-benzimidazol-2-yl]methyl}-N-ethyl-5,6,7,8-tetrahydro-8-quinolinamine]: the IC50 on CXCR4 receptor is 28.2 nM; in series [1], 56.2 nM; in the series with HIV-1 IIIB (setting [3]), < 0.1 µM; with HIV-1 IIIB (setting [4]), 0.021 µM. In addition, the IC50 at 96 h in series [2] was > 100000 nM.
With `CN(Cc1nc2ccccc2n1CCN1CCOCC1)C1CCCc2cccnc21` (stereo not drawn) [Example 5, N-Methyl-N-({1-[2-(4-morpholinyl)ethyl]-1H-benzimidazol-2-yl}methyl)-5,6,7,8-tetrahydro-8-quinolinamine], the IC50 on CXCR4 receptor was 123 nM; in series [1], 200 nM; in the series with HIV-1 IIIB (setting [3]) it was 0.1 to 0.5 µM; in the series with HIV-1 IIIB (setting [4]), 0.225 µM. Moreover, the IC50 at 96 h in series [2] was > 100000 nM.
For `CN(Cc1nc2ccccc2n1CCN1CCCCC1)C1CCCc2cccnc21` (stereo not drawn) [Example 4, N-Methyl-N-({1-[2-(1-piperidinyl)ethyl]-1H-benzimidazol-2-yl}methyl)-5,6,7,8-tetrahydro-8-quinolinamine], in that order: 60.3 nM, 138 nM, 0.1 to 0.5 µM, 0.156 µM and > 100000 nM.
